The experiment addresses DNA-PK (Homo sapiens, UniProt P78527). As to the kind of experiment: DNA-PK inhibition assay (standard radiometric 33P-ATP kinase assay). Format: biochemical. As to conditions: 100 μM ATP, approx. 6 nM DNA-PK. On the procedure:
Compounds were screened for their ability to inhibit DNA-PK kinase using a standard radiometric assay. Briefly, in this kinase assay the transfer of the terminal ^33P-phosphate in ^33P-ATP to a peptide substrate is interrogated. The assay was carried out in 384-well plates to a final volume of 50 μL per well containing approximately 6 nM DNA-PK, 50 mM HEPES (pH 7.5), 10 mM MgCl2, 25 mM NaCl, 0.01% BSA, 1 mM DTT, 10 μg/mL sheared double-stranded DNA (obtained from Sigma), 0.8 mg/mL DNA-PK peptide (Glu-Pro-Pro-Leu-Ser-Gln-Glu-Ala-Phe-Ala-Asp-Leu-Trp-Lys-Lys-Lys, obtained from American Peptide), and 100 μM ATP.
Accordingly, compounds of the invention were dissolved in DMSO to make 10 mM initial stock solutions. Serial dilutions in DMSO were then made to obtain the final solutions for the assay. A 0.75 μL aliquot of DMSO or inhibitor in DMSO was added to each well, followed by the addition of ATP substrate solution containing ^33P-ATP (obtained from Perkin Elmer). The reaction was started by the addition of DNA-PK, peptide and ds-DNA. After 45 min, the reaction was quenched with 25 μL of 5% phosphoric acid. The reaction mixture was transferred to MultiScreen HTS 384-well PH plates (obtained from Millipore), allowed to bind for one hour, and washed three times with 1% phosphoric acid. Following the addition of 50 μL of Ultima Gold™ high efficiency scintillant (obtained from Perkin Elmer), the samples were counted in a Packard TopCount NXT Microplate Scintillation and Luminescence Counter (Packard BioScience). The Ki values were calculated using Microsoft Excel Solver macros to fit the data to the kinetic model for competitive tight-binding inhibition.

SMILES strings stand for the structures.

A word on the Ki: it is the equilibrium dissociation constant of an inhibitor or competing ligand from its target. Molecule `Cc1nc(N[C@H]2CC[C@@H](Oc3cc(N4CCOCC4)cc4nccnc34)CC2)cc(N2CCN(C)CC2)n1` [Compound 275] showed a Ki of under 100 nM. `CCc1cnc(N[C@H]2CC[C@@H](Oc3cc(N4CCOCC4)cc4nccnc34)CC2)nc1` [Compound 208] returned a Ki of under 100 nM. The same measure for `Oc1cnc(N[C@H]2CC[C@@H](Oc3cc(N4CCOCC4)cc4nccnc34)CC2)nc1` [Compound 158]: under 100 nM; for `COc1cc(C)nc(N[C@H]2CC[C@@H](Oc3cc(N4CCOCC4)cc4nccnc34)CC2)n1` [Compound 276]: under 100 nM; for `Fc1cnc(N[C@H]2CC[C@@H](Oc3cc(N4CCOCC4)cc4nccnc34)CC2)nc1` [Compound 37]: under 100 nM.

In turn, `c1cnc(O[C@H]2CC[C@@H](Nc3cc(N4CCOCC4)cc4nccnc34)CC2)nc1` [Compound 46] gave a Ki of under 100 nM.

Consider `Fc1ccc(N[C@H]2CC[C@@H](Oc3cc(N4CCOCC4)cc4nccnc34)CC2)nn1` [Compound 60], for which the Ki was under 100 nM.

Molecule `FC(F)(F)c1ccc(N[C@H]2CC[C@@H](Oc3cc(N4CCOCC4)cc4nccnc34)CC2)nc1` [Compound 189] came in with an inhibitory constant (Ki) of under 100 nM. The same measure for `Fc1nccc(N[C@H]2CC[C@@H](Oc3cc(N4CCOCC4)cc4nccnc34)CC2)n1` [Compound 50]: under 100 nM; for `c1ccc(N[C@H]2CC[C@@H](Nc3cc(N4CCOCC4)cc4nccnc34)CC2)nc1` [Compound 24]: under 100 nM; for `CC(C)NC(=O)c1cnc(N[C@H]2CC[C@@H](Oc3cc(N4CCOCC4)cc4nccnc34)CC2)nc1` [Compound 162]: under 100 nM. Next, `CCOCCc1cnc(N[C@H]2CC[C@@H](Oc3cc(N4CCOCC4)cc4nccnc34)CC2)nc1` [Compound 135]: under 100 nM; `N#Cc1ccc(N[C@H]2CC[C@@H](Oc3cc(N4CCOCC4)cc4nccnc34)CC2)nc1` [Compound 59]: under 100 nM. In turn, `N#Cc1cc(N[C@H]2CC[C@@H](Oc3cc(N4CCOCC4)cc4nccnc34)CC2)ncn1` [Compound 234] yielded a Ki of under 100 nM. The molecule `Brc1cnc(N[C@H]2CC[C@@H](Oc3cc(N4CCOCC4)cc4nccnc34)CC2)nc1` [Compound 45] registered an inhibition constant (Ki) of under 100 nM. The same measure for `OC1CCN(c2ccnc(N[C@H]3CC[C@@H](Oc4cc(N5CCOCC5)cc5nccnc45)CC3)n2)C1` (stereo partly drawn) [Compound 187]: under 100 nM. For the molecule `CC(C)(CO)Nc1ccnc(N[C@H]2CC[C@@H](Oc3cc(N4CCOCC4)cc4nccnc34)CC2)n1` [Compound 264], the Ki is under 100 nM. As for `CCCCc1cnc2cc(N3CCOCC3)cc(O[C@H]3CC[C@@H](Nc4ncccn4)CC3)c2n1` [Compound 63], the Ki was under 100 nM.

`O=C(O)c1cnc(N[C@H]2CC[C@@H](Nc3cc(N4CCOCC4)cc4nccnc34)CC2)nc1` [Compound 29] had a Ki of under 100 nM. Molecule `c1ccc(N[C@H]2CC[C@@H](Oc3cc(N4CCOCC4)cc4nccnc34)CC2)nc1` [Compound 254] yielded an inhibitory constant (Ki) of under 100 nM. Next, `CCN(CC)c1cnc(N[C@H]2CC[C@@H](Oc3cc(N4CCOCC4)cc4nccnc34)CC2)nc1` [Compound 155]: under 100 nM. The same measure for `CC(C)Oc1cnc(N[C@H]2CC[C@@H](Oc3cc(N4CCOCC4)cc4nccnc34)CC2)nc1` [Compound 247]: under 100 nM; for `Fc1ccnc(N[C@H]2CC[C@@H](Oc3cc(N4CCOCC4)cc4nccnc34)CC2)n1` [Compound 49]: under 100 nM. Regarding `c1cnc(N[C@H]2CC[C@@H](Nc3cc(N4CCOCC4)cc4nonc34)CC2)nc1` [Compound 23, (cis)-N^1-(6-morpholinobenzo[c][1,2,5]oxadiazol-4-yl)-N^4-(pyrimidin-2-yl)cyclohexane-1,4-diamine], the inhibitory constant (Ki) is under 100 nM. The same measure for `Cc1nc(N[C@H]2CC[C@@H](Oc3cc(N4CCOCC4)cc4nccnc34)CC2)ccc1C#N` [Compound 241]: under 100 nM; for `Fc1cc(F)nc(N[C@H]2CC[C@@H](Oc3cc(N4CCOCC4)cc4nccnc34)CC2)n1` [Compound 104]: under 100 nM; for `NC(=O)c1cnc(N[C@H]2CC[C@@H](Oc3cc(N4CCOCC4)cc4nccnc34)CC2)nc1` [Compound 65]: under 100 nM. As to `COc1cc(N[C@H]2CC[C@@H](Oc3cc(N4CCOCC4)cc4nccnc34)CC2)ncn1` [Compound 194], the inhibition constant (Ki) was under 100 nM. The same measure for `CCOCCOc1cnc(N[C@H]2CC[C@@H](Oc3cc(N4CCOCC4)cc4nccnc34)CC2)nc1` [Compound 66]: under 100 nM; for `OCc1ccc(N[C@H]2CC[C@@H](Oc3cc(N4CCOCC4)cc4nccnc34)CC2)nc1` [Compound 160]: under 100 nM; for `COC(=O)c1ccc(N[C@H]2CC[C@@H](Oc3cc(N4CCOCC4)cc4nccnc34)CC2)nc1` [Compound 146]: under 100 nM. In the case of `Cc1ccc(N[C@H]2CC[C@@H](Oc3cc(N4CCOCC4)cc4nccnc34)CC2)nn1` [Compound 450], the inhibition constant (Ki) is under 100 nM.

As for `c1ncc(N[C@H]2CC[C@@H](Nc3cc(N4CCOCC4)cc4nccnc34)CC2)cn1` [Compound 30], the Ki is under 100 nM. `c1cnc(N[C@H]2CC[C@@H](Oc3cc(N4CCOCC4)cc4nccnc34)CC2)nc1` [Compound 28, N-((cis)-4-((7-morpholinoquinoxalin-5-yl)oxy)cyclohexyl)pyrimidin-2-amine] showed a Ki of under 100 nM. Next, `c1cnc(N[C@H]2CC[C@@H](Nc3cc(N4CCOCC4)cc4nccnc34)CC2)cn1` [Compound 27]: under 100 nM; `CCOc1cc(N[C@H]2CC[C@@H](Oc3cc(N4CCOCC4)cc4nccnc34)CC2)nc(C)n1` [Compound 644]: under 100 nM. Next, `CCOc1ncc(F)c(N[C@H]2CC[C@@H](Oc3cc(N4CCOCC4)cc4nccnc34)CC2)n1` [Compound 607]: under 100 nM; `O[C@@H](c1cnc(N[C@H]2CC[C@@H](Oc3cc(N4CCOCC4)cc4nccnc34)CC2)nc1)C(F)(F)F` [Compound 236]: under 100 nM; `c1cnc2c(O[C@H]3CC[C@@H](Nc4ncc(C5CC5)cn4)CC3)cc(N3CCOCC3)cc2n1` [Compound 109]: under 100 nM.

For `c1cc(N[C@H]2CC[C@@H](Oc3cc(N4CCOCC4)cc4nccnc34)CC2)nc(C2CC2)n1` [Compound 267], the inhibition constant (Ki) was under 100 nM.

As for `N#Cc1nccc(N[C@H]2CC[C@@H](Oc3cc(N4CCOCC4)cc4nccnc34)CC2)n1` [Compound 203], the Ki is under 100 nM. The same measure for `COc1ccc(N[C@H]2CC[C@@H](Oc3cc(N4CCOCC4)cc4nccnc34)CC2)nn1` [Compound 260]: under 100 nM; for `O[C@H](c1cnc(N[C@H]2CC[C@@H](Oc3cc(N4CCOCC4)cc4nccnc34)CC2)nc1)C(F)(F)F` [Compound 235]: under 100 nM. As to `CN(C)c1nc(N[C@H]2CC[C@@H](Oc3cc(N4CCOCC4)cc4nccnc34)CC2)ncc1F` [Compound 269], the Ki is under 100 nM. `CN(C)C(=O)c1cnc(N[C@H]2CC[C@@H](Oc3cc(N4CCOCC4)cc4nccnc34)CC2)nc1` [Compound 72] registered a Ki of under 100 nM. Consider `COC(=O)c1cc(C)nc(N[C@H]2CC[C@@H](Oc3cc(N4CCOCC4)cc4nccnc34)CC2)n1` [Compound 565], for which the Ki is under 100 nM.

As to `Fc1c(Cl)ncnc1N[C@H]1CC[C@@H](Oc2cc(N3CCOCC3)cc3nccnc23)CC1` [Compound 277], the inhibition constant Ki was under 100 nM. The same measure for `COCc1cc(N[C@H]2CC[C@@H](Oc3cc(N4CCOCC4)cc4nccnc34)CC2)ncn1` [Compound 225]: under 100 nM; for `COCc1cnc(N[C@H]2CC[C@@H](Oc3cc(N4CCOCC4)cc4nccnc34)CC2)nc1` [Compound 161]: under 100 nM.

`CNc1cc(N[C@H]2CC[C@@H](Oc3cc(N4CCOCC4)cc4nccnc34)CC2)ncn1` [Compound 205] showed a Ki of under 100 nM. `Cc1cc(N[C@H]2CC[C@@H](Oc3cc(N4CCOCC4)cc4nccnc34)CC2)ncn1` [Compound 265] returned a Ki of under 100 nM.

The record behind these values is US12121524B2, “DNA-PK inhibitors” (VERTEX PHARMACEUTICALS INCORPORATED, priority 2018, dated 2024).
